According to PubChem BioAssay AID256 (DTP/NCI, 2004):
Toxic doses and inconclusive results are not listed. Rule for the calls: active = survival T/C of 150% or more; inactive = T/C below 125% in these data.

System: CD2F1 mice, L1210 leukemia ip, survival T/C
Experiment: NCI In Vivo Anticancer Drug Screen. Data for tumor model L1210 Leukemia (intraperitoneal) in CD2F1 (CDF1) mice
Details: higher = longer survival
Outline: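 Mice carrying a transplanted tumor received test compound or vehicle alone. The value is the measurement in the treated group divided by that in the vehicle-treated control group.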

[1] = endpoint: mean survival time, dose: 100.0 mg/kg/injection, schedule: Q04DX003 (ip), vehicle: saline with Tween-80
[2] = endpoint: mean survival time, dose: 200.0 mg/kg/injection, schedule: Q04DX003 (ip), vehicle: saline with Tween-80
[3] = endpoint: mean survival time, dose: 400.0 mg/kg/injection, schedule: Q04DX003 (ip), vehicle: saline with Tween-80
[4] = endpoint: mean survival time, dose: 25.0 mg/kg/injection, schedule: Q01DX009 (ip), vehicle: other
[5] = endpoint: mean survival time, dose: 50.0 mg/kg/injection, schedule: Q01DX009 (ip), vehicle: other
[6] = endpoint: mean survival time, dose: 100.0 mg/kg/injection, schedule: Q01DX001 (ip), vehicle: saline with Tween-80
[7] = endpoint: mean survival time, dose: 200.0 mg/kg/injection, schedule: Q01DX001 (ip), vehicle: saline with Tween-80
[8] = endpoint: mean survival time, dose: 400.0 mg/kg/injection, schedule: Q01DX001 (ip), vehicle: saline with Tween-80
[9] = endpoint: mean survival time, dose: 25.0 mg/kg/injection, schedule: Q04DX002 (ip), vehicle: saline with Tween-80
[10] = endpoint: mean survival time, dose: 50.0 mg/kg/injection, schedule: Q04DX002 (ip), vehicle: saline with Tween-80

Measured: T/C

O=C(O)/C=C/C(=O)Nc1cc2c(cc1Br)-c1ccccc1C2O (stereo not drawn)
inactive: [1] 100 % of control | [2] 102 % of control | [3] 94 % of control

Cc1ccc(N2CCOC2=O)cc1N1CCOC1=O
inactive: [4] 100 % of control | [5] 105 % of control | endpoint: mean survival time, dose: 100.0 mg/kg/injection, schedule: Q01DX009 (ip), vehicle: other 102 % of control

O=C1NC(=O)c2cccc3cccc1c23
inactive: endpoint: mean survival time, dose: 100.0 mg/kg/injection, schedule: Q01DX009 (ip), vehicle: saline with Tween-80 100 % of control | [1] 98 % of control | endpoint: mean survival time, dose: 200.0 mg/kg/injection, schedule: Q01DX009 (ip), vehicle: saline with Tween-80 96 % of control | [2] 102 % of control | endpoint: mean survival time, dose: 400.0 mg/kg/injection, schedule: Q01DX009 (ip), vehicle: saline with Tween-80 94 % of control | [3] 100 % of control

CC(C)(C)c1ccc(O)c(C(=O)N/N=C/c2ccccc2O)c1
inactive: [6] 97 % of control | [7] 104 % of control | [8] 93 % of control

C[P+]1(c2ccccc2)c2ccccc2Oc2ccccc21
inactive: endpoint: mean survival time, dose: 75.0 mg/kg/injection, schedule: Q01DX001 (ip), vehicle: saline 102 % of control

Cc1cc(F)ccc1NC(=O)Nc1ccc(F)cc1C
inactive: [9] 87 % of control | [10] 87 % of control

COc1ccc(OC)c(C2N(Cc3ccccc3N(C)C)CCCN2Cc2ccccc2N(C)C)c1
inactive: [1] 92 % of control | [2] 88 % of control

CC(NC1=NCCO1)c1cccc2ccccc12 (stereo not drawn)
inactive: [1] 89 % of control

[Au].[NH-]CC[NH-].[NH-]CC[NH-]
inactive: endpoint: mean survival time, dose: 6.25 mg/kg/injection, schedule: Q01DX001 (ip), vehicle: water 89 % of control | endpoint: mean survival time, dose: 6.25 mg/kg/injection, schedule: Q04DX003 (ip), vehicle: water 98 % of control | endpoint: mean survival time, dose: 12.5 mg/kg/injection, schedule: Q01DX001 (ip), vehicle: water 94 % of control | endpoint: mean survival time, dose: 12.5 mg/kg/injection, schedule: Q04DX003 (ip), vehicle: water 89 % of control | endpoint: mean survival time, dose: 25.0 mg/kg/injection, schedule: Q01DX001 (ip), vehicle: water 101 % of control

CCCCC(CC(=O)O)c1ccc(Cl)cc1 (stereo not drawn)
inactive: [1] 95 % of control | [2] 101 % of control

CC(C)(C)C1SCC(O)CS1 (stereo not drawn)
inactive: endpoint: mean survival time, dose: 12.5 mg/kg/injection, schedule: Q04DX002 (ip), vehicle: saline with Tween-80 105 % of control | [9] 97 % of control | [10] 97 % of control

Cc1ccc(Cl)cc1NC(=O)c1c(Br)c(Br)c(Br)c(Br)c1C(=O)O
inactive: [6] 106 % of control | [7] 110 % of control | [8] 108 % of control

Cc1ncoc1C(=O)O
inactive: [1] 109 % of control | [2] 104 % of control

NCCN1c2ccccc2Sc2ccccc21
inactive: endpoint: mean survival time, dose: 12.5 mg/kg/injection, schedule: Q01DX009 (ip), vehicle: other 105 % of control | [4] 98 % of control | [5] 113 % of control

O=S(=O)([O][Hg][CH2]C1Cc2ccccc2O1)[O][Hg][CH2]C1Cc2ccccc2O1 (stereo not drawn)
inactive: endpoint: mean survival time, dose: 6.25 mg/kg/injection, schedule: Q01DX009 (ip), vehicle: Klucel (hydroxypropylcellulose) (HPC) 95 % of control | endpoint: mean survival time, dose: 12.5 mg/kg/injection, schedule: Q01DX009 (ip), vehicle: Klucel (hydroxypropylcellulose) (HPC) 92 % of control | endpoint: mean survival time, dose: 25.0 mg/kg/injection, schedule: Q01DX009 (ip), vehicle: Klucel (hydroxypropylcellulose) (HPC) 96 % of control | endpoint: median survival time, dose: 6.25 mg/kg/injection, schedule: Q04DX003 (ip), vehicle: saline with Tween-80 100 % of control | endpoint: median survival time, dose: 12.5 mg/kg/injection, schedule: Q04DX003 (ip), vehicle: saline with Tween-80 100 % of control | endpoint: median survival time, dose: 25.0 mg/kg/injection, schedule: Q04DX003 (ip), vehicle: saline with Tween-80 100 % of control

CCOc1ccc(-c2nc(N)nc(N)n2)cc1
inactive: endpoint: mean survival time, dose: 12.5 mg/kg/injection, schedule: Q01DX009 (ip), vehicle: water 101 % of control | endpoint: mean survival time, dose: 25.0 mg/kg/injection, schedule: Q01DX009 (ip), vehicle: water 97 % of control | endpoint: mean survival time, dose: 50.0 mg/kg/injection, schedule: Q01DX009 (ip), vehicle: water 97 % of control | endpoint: mean survival time, dose: 100.0 mg/kg/injection, schedule: Q01DX009 (ip), vehicle: water 97 % of control | endpoint: mean survival time, dose: 200.0 mg/kg/injection, schedule: Q01DX009 (ip), vehicle: water 97 % of control

NC(=S)N/N=C/c1cccc(CC(O)(C(F)(F)F)C(F)(F)F)n1
inactive: endpoint: mean survival time, dose: 12.5 mg/kg/injection, schedule: Q04DX003 (ip), vehicle: saline with Tween-80 97 % of control | endpoint: mean survival time, dose: 25.0 mg/kg/injection, schedule: Q04DX003 (ip), vehicle: saline with Tween-80 94 % of control | endpoint: mean survival time, dose: 50.0 mg/kg/injection, schedule: Q04DX003 (ip), vehicle: saline with Tween-80 96 % of control
